Experiments:
[1] = Storage stability of ticagrelor 6 mg/ml in HPβCD 40% w/w at pH 4.5, 5.5, 6.5, 40° C./75% RH, related substances by HPLC; format: physicochemical; conditions: for Acetal impurity, average content / Amine impurity, average content / Impurity at relative retention time 1.52, average content / Oxidative impurity 1, average content / Oxidative impurity 2, average content / Regiomer impurity, average content / Sum impurities >0.05 / Total impurities / Triol Impurity, average content: 40° C./75% RH
Procedure: HPBCD was dissolved in a buffer solution of pH 4.5, 5.5 or 6.5 prepared separately in water. […] The ticagrelor in buffer solution was filtered through a 0.22 micron filtered and filled in USP Type I glass vials. The vials were stoppered and stored. All precautions were taken during manufacturing, such as N2 purging and avoiding direct exposure to light. The vials were stored at 40° C. and 75% Relative Humidity (RH). To determine the stability of the formulations, batches were evaluated using a related substance method on HPLC. A Gradient HPLC method was used to analyze impurities in formulations using a YMC-Pack Pro C18 column (100×4.6 mm, S-3 μm 12 nm). Good separation was obtained for all the impurities.

[2] = 30-42% confidence interval; cited from earlier work
[3] = pH, osmolality, assay and impurities of undiluted batches; impact of buffer strength; format: physicochemical
Procedure: From the results obtained in Example 4 it follows that the concentration of excipients may be such that the resulting ticagrelor solution is hypertonic. The osmolality and pH of several batches was checked. […] In addition, a screening was conducted on the impact of buffer strength on pH and osmolality.

[4] = Flocculation test (20 μl sample material in 1 ml diluent); format: physicochemical
[5] = Maximum solubility of ticagrelor in HPβCD solution without heat; format: physicochemical; conditions: without the use of heat
From the text: In a further example, the maximum solubility of ticagrelor in an HPβCD solution, without the use of heat, was investigated.

[6] = HPβCD 22.5% w/w, 19 mM phosphate buffer pH 7.5
[7] = HPβCD 25.0% w/w, 19 mM phosphate buffer pH 7.5
[8] = HPβCD 27.5% w/w, 19 mM phosphate buffer pH 7.5
[9] = HPβCD 30.0% w/w, 19 mM phosphate buffer pH 7.5
[10] = HPβCD 32.5% w/w, 19 mM phosphate buffer pH 7.5
[11] = phosphate buffer pH 7.5 strength 0.19 mM
[12] = phosphate buffer pH 7.5 strength 5 mM
[13] = phosphate buffer pH 7.5 strength 10 mM
[14] = phosphate buffer pH 7.5 strength 19 mM

CCCSc1nc(N[C@@H]2C[C@H]2c2ccc(F)c(F)c2)c2nnn([C@@H]3C[C@H](OCCO)[C@@H](O)[C@H]3O)c2n1 [ticagrelor, (1S,2S,3R,5S)-3-{7-[(1R,2S)-2-(3,4-difluorophenyl)cyclopropylamino]5-(propylthio)-3H-(1,2,3)triazolo (4,5-D)pyrimidin-3-yl}-5-(2 hydroxyethoxy) cyclopentane-1,2-diol]
regiomer impurity level ([1]; 4 weeks 40° C. and 75% RH, specification limit 0.3%): ~0.3%
Acetal impurity, average content ([1]; pH 4.5, T = 0): 0.05%
Amine impurity, average content ([1]; pH 4.5, T = 0): 0.05%
Impurity at relative retention time 1.52, average content ([1]; pH 4.5, T = 0): 0.03%
Oxidative impurity 1, average content ([1]; pH 4.5, T = 0): 0.00%
Oxidative impurity 2, average content ([1]; pH 4.5, T = 0): 0.00%
Regiomer impurity, average content ([1]; pH 4.5, T = 0): 0.00%
Sum impurities >0.05 ([1]; pH 4.5, T = 0): 0.22%
Total impurities ([1]; pH 4.5, T = 0): 0.36%
Triol Impurity, average content ([1]; pH 4.5, T = 0): 0.05%
Acetal impurity, average content ([1]; pH 4.5, T = 2 weeks): 0.06%
Amine impurity, average content ([1]; pH 4.5, T = 2 weeks): 0.05%
Impurity at relative retention time 1.52, average content ([1]; pH 4.5, T = 2 weeks): 0.04%
Oxidative impurity 1, average content ([1]; pH 4.5, T = 2 weeks): 0.00%
Oxidative impurity 2, average content ([1]; pH 4.5, T = 2 weeks): 0.00%
Regiomer impurity, average content ([1]; pH 4.5, T = 2 weeks): 0.00%
Sum impurities >0.05 ([1]; pH 4.5, T = 2 weeks): 0.23%
Total impurities ([1]; pH 4.5, T = 2 weeks): 0.40%
Triol Impurity, average content ([1]; pH 4.5, T = 2 weeks): 0.05%
Acetal impurity, average content ([1]; pH 4.5, T = 4 weeks): 0.05%
Amine impurity, average content ([1]; pH 4.5, T = 4 weeks): 0.05%
Impurity at relative retention time 1.52, average content ([1]; pH 4.5, T = 4 weeks): 0.03%
Oxidative impurity 1, average content ([1]; pH 4.5, T = 4 weeks): 0.01%
Oxidative impurity 2, average content ([1]; pH 4.5, T = 4 weeks): 0.02%
Regiomer impurity, average content ([1]; pH 4.5, T = 4 weeks): 0.42%
Sum impurities >0.05 ([1]; pH 4.5, T = 4 weeks): 0.63%
Total impurities ([1]; pH 4.5, T = 4 weeks): 0.80%
Triol Impurity, average content ([1]; pH 4.5, T = 4 weeks): 0.05%
Acetal impurity, average content ([1]; pH 5.5, T = 0): 0.05%
Amine impurity, average content ([1]; pH 5.5, T = 0): 0.04%
Impurity at relative retention time 1.52, average content ([1]; pH 5.5, T = 0): 0.02%
Oxidative impurity 1, average content ([1]; pH 5.5, T = 0): 0.00%
Oxidative impurity 2, average content ([1]; pH 5.5, T = 0): 0.00%
Regiomer impurity, average content ([1]; pH 5.5, T = 0): 0.00%
Sum impurities >0.05 ([1]; pH 5.5, T = 0): 0.16%
Total impurities ([1]; pH 5.5, T = 0): 0.33%
Triol Impurity, average content ([1]; pH 5.5, T = 0): 0.05%
Acetal impurity, average content ([1]; pH 5.5, T = 2 weeks): 0.05%
Amine impurity, average content ([1]; pH 5.5, T = 2 weeks): 0.05%
Impurity at relative retention time 1.52, average content ([1]; pH 5.5, T = 2 weeks): 0.03%
Oxidative impurity 1, average content ([1]; pH 5.5, T = 2 weeks): 0.00%
Oxidative impurity 2, average content ([1]; pH 5.5, T = 2 weeks): 0.00%
Regiomer impurity, average content ([1]; pH 5.5, T = 2 weeks): 0.00%
Sum impurities >0.05 ([1]; pH 5.5, T = 2 weeks): 0.21%
Total impurities ([1]; pH 5.5, T = 2 weeks): 0.36%
Triol Impurity, average content ([1]; pH 5.5, T = 2 weeks): 0.05%
Acetal impurity, average content ([1]; pH 5.5, T = 4 weeks): 0.05%
Amine impurity, average content ([1]; pH 5.5, T = 4 weeks): 0.04%
Impurity at relative retention time 1.52, average content ([1]; pH 5.5, T = 4 weeks): 0.02%
Oxidative impurity 1, average content ([1]; pH 5.5, T = 4 weeks): 0.01%
Oxidative impurity 2, average content ([1]; pH 5.5, T = 4 weeks): 0.02%
Regiomer impurity, average content ([1]; pH 5.5, T = 4 weeks): 0.30%
Sum impurities >0.05 ([1]; pH 5.5, T = 4 weeks): 0.45%
Total impurities ([1]; pH 5.5, T = 4 weeks): 0.65%
Triol Impurity, average content ([1]; pH 5.5, T = 4 weeks): 0.05%
Acetal impurity, average content ([1]; pH 6.5, T = 0): 0.06%
Amine impurity, average content ([1]; pH 6.5, T = 0): 0.05%
Impurity at relative retention time 1.52, average content ([1]; pH 6.5, T = 0): 0.03%
Oxidative impurity 1, average content ([1]; pH 6.5, T = 0): 0.00%
Oxidative impurity 2, average content ([1]; pH 6.5, T = 0): 0.00%
Regiomer impurity, average content ([1]; pH 6.5, T = 0): 0.00%
Sum impurities >0.05 ([1]; pH 6.5, T = 0): 0.22%
Total impurities ([1]; pH 6.5, T = 0): 0.36%
Triol Impurity, average content ([1]; pH 6.5, T = 0): 0.06%
Acetal impurity, average content ([1]; pH 6.5, T = 2 weeks): 0.06%
Amine impurity, average content ([1]; pH 6.5, T = 2 weeks): 0.05%
Impurity at relative retention time 1.52, average content ([1]; pH 6.5, T = 2 weeks): 0.04%
Oxidative impurity 1, average content ([1]; pH 6.5, T = 2 weeks): 0.00%
Oxidative impurity 2, average content ([1]; pH 6.5, T = 2 weeks): 0.00%
Regiomer impurity, average content ([1]; pH 6.5, T = 2 weeks): 0.00%
Sum impurities >0.05 ([1]; pH 6.5, T = 2 weeks): 0.23%
Total impurities ([1]; pH 6.5, T = 2 weeks): 0.41%
Triol Impurity, average content ([1]; pH 6.5, T = 2 weeks): 0.06%
Acetal impurity, average content ([1]; pH 6.5, T = 4 weeks): 0.06%
Amine impurity, average content ([1]; pH 6.5, T = 4 weeks): 0.05%
Impurity at relative retention time 1.52, average content ([1]; pH 6.5, T = 4 weeks): 0.03%
Oxidative impurity 1, average content ([1]; pH 6.5, T = 4 weeks): 0.00%
Oxidative impurity 2, average content ([1]; pH 6.5, T = 4 weeks): 0.04%
Regiomer impurity, average content ([1]; pH 6.5, T = 4 weeks): 0.35%
Sum impurities >0.05 ([1]; pH 6.5, T = 4 weeks): 0.56%
Total impurities ([1]; pH 6.5, T = 4 weeks): 0.72%
Triol Impurity, average content ([1]; pH 6.5, T = 4 weeks): 0.05%
Oral bioavailability [2]: 36%
Assay [3, 6]: 98.15%
Osmolality undiluted [3, 6]: 392 mOsm/kg
Total impurities [3, 6]: 0.39%
pH undiluted [3, 6]: 7.67
Assay [3, 7]: 103.23%
Osmolality undiluted [3, 7]: 493 mOsm/kg
Total impurities [3, 7]: 0.41%
pH undiluted [3, 7]: 7.69
Assay [3, 8]: 104.27%
Osmolality undiluted [3, 8]: 549 mOsm/kg
Total impurities [3, 8]: 0.42%
pH undiluted [3, 8]: 7.69
Assay [3, 9]: 107.64%
Osmolality undiluted [3, 9]: 638 mOsm/kg
Total impurities [3, 9]: 0.44%
pH undiluted [3, 9]: 7.74
Assay [3, 10]: 99.26%
Osmolality undiluted [3, 10]: 813 mOsm/kg
Total impurities [3, 10]: 0.41%
pH undiluted [3, 10]: 7.68
Assay [3, 11]: 102.23%
Osmolality sample [3, 11]: 809 mOsm/kg
Total impurities [3, 11]: 0.42%
pH sample [3, 11]: 7.18
Assay [3, 12]: 100.49%
Osmolality sample [3, 12]: 703 mOsm/kg
Total impurities [3, 12]: 0.40%
pH sample [3, 12]: 7.66
Assay [3, 13]: 102.98%
Osmolality sample [3, 13]: 724 mOsm/kg
Total impurities [3, 13]: 0.42%
pH sample [3, 13]: 7.69
Assay [3, 14]: 102.58%
Osmolality sample [3, 14]: 758 mOsm/kg
Total impurities [3, 14]: 0.42%
pH sample [3, 14]: 7.70
Flocculation test ([4]; HPβCD 30% w/w, ticagrelor 5 mg/ml): passed
Flocculation test ([4]; HPβCD 35% w/w, ticagrelor 5 mg/ml): passed
Flocculation test ([4]; HPβCD 40% w/w, ticagrelor 5 mg/ml): passed
Flocculation test ([4]; HPβCD 40% w/w, ticagrelor 10 mg/ml): passed
Flocculation test ([4]; SBECD 40% w/w, ticagrelor 5 mg/ml): passed
Ticagrelor (maximum solubility in HPβCD solution) ([5]; HPβCD 30% w/w): 8000 µg/mL
Ticagrelor (maximum solubility in HPβCD solution) ([5]; HPβCD 33% w/w): 9000 µg/mL

From patent publication US20260007599A1, “TICAGRELOR IV FORMULATIONS FOR USE IN THE TREATMENT OF GRAM-POSITIVE BACTEREMIA” (Hyloris Developments SA, priority 2023, published 2026)
